In US20080103205A1, “Pesticidal compositions and methods of use” (priority 2006, published 2008):
Read-outs that look alike come from different tables or passages of the source.

Experiments:
[1] = system: Meloidogyne incognita; test: Toxicity test, J2 juveniles of Meloidogyne incognita, 96 well micro plate; format: in vivo; conditions: Meloidogyne incognita
Protocol: Methodology: Toxicity tests were conducted using J2 juveniles of Meloidogyne incognita adult Caenorhabditis elegans collected from nematode-infested tomato plant roots and culture Petri plates, respectively. Test concentrations of 50, 100, 200, 300, or 400 ppm were prepared in 0.2% dimethylsulfoxide (DMSO) in tap water. Aliquots (300 microliters (ul)) were applied to a 96 well micro plate and a 20 ul aqueous solution containing nematodes was added. The number of nematodes in 20 ul ranged from 17 to 30. Micro plates were sealed with Parafilm™ and incubated at room temperature. Similar tests conducted with 0.2% DMSO in tap water served as controls. Nematode mortality was checked at 24, 48, 72, 120, and 168 hr after incubation. Nematodes that were motionless for 30 sec when observed under a stereomicroscope were considered paralyzed and included in mortality counts. Each concentration was replicated five times and mean percent mortality was calculated after correcting for control mortality using Abbott's formula.
Data Analysis: Mortality data were analyzed using PROC PROBIT (SAS) program and LC50 values were estimated.

[2] = system: Meloidogyne incognita eggs; test: M. incognita egg hatching; format: in vivo
Protocol: Meloidogyne incognita (plant parasitic nematode) eggs were collected from tomato plant roots and were suspended in water. The solution was either diluted or concentrated to adjust the egg load to about 5000/ml. AT stock solutions prepared in DMSO and 300 ul of test solution was placed in a well, along with 20 ul of aqueous solution containing eggs. The number of eggs in 20 ul solution ranged from 115 to 143 (n=10). Each treatment (2, 5, 10, 20, or 40 ppm) was replicated 5 times. Microplates were sealed with Parafilm™ and incubated at room temperature. Similar tests conducted with 0.2% DMSO alone served as controls. Egg hatching was monitored at 24, 72, 120, and 168 hr after incubation. Both moving and non-moving nematodes were counted to arrive at the number of eggs hatched. Proportion of egg hatch was calculated as the number of juveniles divided by total number of eggs.
VSCC blockers effect on M. incognita egg hatching is shown in the following tables where % hatched is rounded to the nearest percentage point and where “% C*” is % hatch, normalized to control.

[3] = 24 h, read-out: Corrected Mortality (%)
[4] = 48 h, read-out: Corrected Mortality (%)
[5] = 72 h, read-out: Corrected Mortality (%)
[6] = 120 h, read-out: Corrected Mortality (%)
[7] = 168 h, read-out: Corrected Mortality (%)

SMILES: O=C(O)c1cc([N+](=O)[O-])ccc1NCCCc1ccccc1 [NPPB, 5-Nitro-2-(3-phenylpropylamino)benzoic acid]
- mortality at 50 ppm ([1]; 24 h): 12%
- mortality at 100 ppm ([1]; 24 h): 14%
- mortality at 200 ppm ([1]; 24 h): 18%
- mortality at 300 ppm ([1]; 24 h): 20%
- mortality at 400 ppm ([1]; 24 h): 27%
- mortality at 50 ppm [1, 3]: 8%
- mortality at 100 ppm [1, 3]: 10%
- mortality at 200 ppm [1, 3]: 15%
- mortality at 300 ppm [1, 3]: 17%
- mortality at 400 ppm [1, 3]: 24%
- mortality at 50 ppm ([1]; 48 h): 22%
- mortality at 100 ppm ([1]; 48 h): 32%
- mortality at 200 ppm ([1]; 48 h): 41%
- mortality at 300 ppm ([1]; 48 h): 43%
- mortality at 400 ppm ([1]; 48 h): 56%
- mortality at 50 ppm [1, 4]: 17%
- mortality at 100 ppm [1, 4]: 28%
- mortality at 200 ppm [1, 4]: 37%
- mortality at 300 ppm [1, 4]: 39%
- mortality at 400 ppm [1, 4]: 53%
- mortality at 50 ppm ([1]; 72 h): 40%
- mortality at 100 ppm ([1]; 72 h): 51%
- mortality at 200 ppm ([1]; 72 h): 66%
- mortality at 300 ppm ([1]; 72 h): 73%
- mortality at 400 ppm ([1]; 72 h): 82%
- mortality at 50 ppm [1, 5]: 33%
- mortality at 100 ppm [1, 5]: 45%
- mortality at 200 ppm [1, 5]: 62%
- mortality at 300 ppm [1, 5]: 70%
- mortality at 400 ppm [1, 5]: 80%
- mortality at 50 ppm ([1]; 120 h): 62%
- mortality at 100 ppm ([1]; 120 h): 73%
- mortality at 200 ppm ([1]; 120 h): 90%
- mortality at 300 ppm ([1]; 120 h): 97%
- mortality at 400 ppm ([1]; 120 h): 100%
- mortality at 50 ppm [1, 6]: 56%
- mortality at 100 ppm [1, 6]: 69%
- mortality at 200 ppm [1, 6]: 89%
- mortality at 300 ppm [1, 6]: 97%
- mortality at 400 ppm [1, 6]: 100%
- mortality at 50 ppm ([1]; 168 h): 89%
- mortality at 100 ppm ([1]; 168 h): 93%
- mortality at 200 ppm ([1]; 168 h): 99%
- mortality at 300 ppm ([1]; 168 h): 100%
- mortality at 400 ppm ([1]; 168 h): 100%
- mortality at 50 ppm [1, 7]: 87%
- mortality at 100 ppm [1, 7]: 92%
- mortality at 200 ppm [1, 7]: 99%
- mortality at 300 ppm [1, 7]: 100%
- mortality at 400 ppm [1, 7]: 100%
- Eggs Hatched % ([2]; 2 ppm, 24 hr): 10%
- Eggs Hatched % C* (% hatch, normalized to control) ([2]; 2 ppm, 24 hr): 100%
- Eggs Hatched No. ([2]; 2 ppm, 24 hr): 61
- Eggs Hatched % ([2]; 2 ppm, 72 hr): 14%
- Eggs Hatched % C* (% hatch, normalized to control) ([2]; 2 ppm, 72 hr): 87%
- Eggs Hatched No. ([2]; 2 ppm, 72 hr): 92
- Eggs Hatched % ([2]; 2 ppm, 120 hr): 19%
- Eggs Hatched % C* (% hatch, normalized to control) ([2]; 2 ppm, 120 hr): 86%
- Eggs Hatched No. ([2]; 2 ppm, 120 hr): 127
- Eggs Hatched % ([2]; 2 ppm, 168 hr): 23%
- Eggs Hatched % C* (% hatch, normalized to control) ([2]; 2 ppm, 168 hr): 83%
- Eggs Hatched No. ([2]; 2 ppm, 168 hr): 155
- Eggs Hatched % ([2]; 5 ppm, 24 hr): 10%
- Eggs Hatched % C* (% hatch, normalized to control) ([2]; 5 ppm, 24 hr): 100%
- Eggs Hatched No. ([2]; 5 ppm, 24 hr): 58
- Eggs Hatched % ([2]; 5 ppm, 72 hr): 14%
- Eggs Hatched % C* (% hatch, normalized to control) ([2]; 5 ppm, 72 hr): 87%
- Eggs Hatched No. ([2]; 5 ppm, 72 hr): 86
- Eggs Hatched % ([2]; 5 ppm, 120 hr): 18%
- Eggs Hatched % C* (% hatch, normalized to control) ([2]; 5 ppm, 120 hr): 82%
- Eggs Hatched No. ([2]; 5 ppm, 120 hr): 118
- Eggs Hatched % ([2]; 5 ppm, 168 hr): 22%
- Eggs Hatched % C* (% hatch, normalized to control) ([2]; 5 ppm, 168 hr): 79%
- Eggs Hatched No. ([2]; 5 ppm, 168 hr): 149
- Eggs Hatched % ([2]; 10 ppm, 24 hr): 9%
- Eggs Hatched % C* (% hatch, normalized to control) ([2]; 10 ppm, 24 hr): 90%
- Eggs Hatched No. ([2]; 10 ppm, 24 hr): 58
- Eggs Hatched % ([2]; 10 ppm, 72 hr): 12%
- Eggs Hatched % C* (% hatch, normalized to control) ([2]; 10 ppm, 72 hr): 75%
- Eggs Hatched No. ([2]; 10 ppm, 72 hr): 82
- Eggs Hatched % ([2]; 10 ppm, 120 hr): 16%
- Eggs Hatched % C* (% hatch, normalized to control) ([2]; 10 ppm, 120 hr): 72%
- Eggs Hatched No. ([2]; 10 ppm, 120 hr): 105
- Eggs Hatched % ([2]; 10 ppm, 168 hr): 20%
- Eggs Hatched % C* (% hatch, normalized to control) ([2]; 10 ppm, 168 hr): 71%
- Eggs Hatched No. ([2]; 10 ppm, 168 hr): 129
- Eggs Hatched % ([2]; 20 ppm, 24 hr): 9%
- Eggs Hatched % C* (% hatch, normalized to control) ([2]; 20 ppm, 24 hr): 90%
- Eggs Hatched No. ([2]; 20 ppm, 24 hr): 52
- Eggs Hatched % ([2]; 20 ppm, 72 hr): 11%
- Eggs Hatched % C* (% hatch, normalized to control) ([2]; 20 ppm, 72 hr): 69%
- Eggs Hatched No. ([2]; 20 ppm, 72 hr): 67
- Eggs Hatched % ([2]; 20 ppm, 120 hr): 14%
- Eggs Hatched % C* (% hatch, normalized to control) ([2]; 20 ppm, 120 hr): 64%
- Eggs Hatched No. ([2]; 20 ppm, 120 hr): 85
- Eggs Hatched % ([2]; 20 ppm, 168 hr): 17%
- Eggs Hatched % C* (% hatch, normalized to control) ([2]; 20 ppm, 168 hr): 61%
- Eggs Hatched No. ([2]; 20 ppm, 168 hr): 106
- Eggs Hatched % ([2]; 40 ppm, 24 hr): 8%
- Eggs Hatched % C* (% hatch, normalized to control) ([2]; 40 ppm, 24 hr): 80%
- Eggs Hatched No. ([2]; 40 ppm, 24 hr): 47
- Eggs Hatched % ([2]; 40 ppm, 72 hr): 11%
- Eggs Hatched % C* (% hatch, normalized to control) ([2]; 40 ppm, 72 hr): 69%
- Eggs Hatched No. ([2]; 40 ppm, 72 hr): 61
- Eggs Hatched % ([2]; 40 ppm, 120 hr): 11%
- Eggs Hatched % C* (% hatch, normalized to control) ([2]; 40 ppm, 120 hr): 50%
- Eggs Hatched No. ([2]; 40 ppm, 120 hr): 74
- Eggs Hatched % ([2]; 40 ppm, 168 hr): 12%
- Eggs Hatched % C* (% hatch, normalized to control) ([2]; 40 ppm, 168 hr): 43%
- Eggs Hatched No. ([2]; 40 ppm, 168 hr): 82
